System: patients with MF
Assay: Phase 2 safety: adverse events, serious adverse events and deaths
Assay type: in vivo, human
Procedure: At screening/baseline, patients underwent a medical history, physical examination, vital sign assessment, ECOG PS assessment, electrocardiogram, and assessment of hematologic parameters and blood chemistry. Hematology/blood chemistry, physical examinations, and vital sign assessments were performed throughout treatment. Toxicity was assessed using the National Cancer Institute Common Terminology Criteria for Adverse Events (NCIC-CTCAE), version 3.0, with relationship to treatment assigned by the investigator and were recorded from the first dose of pacritinib until 30 days after the last dose. Bone marrow biopsy and/or aspirate samples were drawn at baseline, on day 1 of cycle 4 and cycle 10, as clinically indicated, and at the termination visit. Disease response and progression were determined using the relevant International Working Group (IWG) criteria.
The efficacy-evaluable population included those patients with a baseline and corresponding follow-up value. The safety population included all enrolled patients who received ≥1 dose of pacritinib.

C1=C/COCc2cc(ccc2OCCN2CCCC2)Nc2nccc(n2)-c2cccc(c2)COC/1 [pacritinib, 11-(2-pyrrolidin-1-yl-ethoxy)-14,19-dioxa-5,7,26-triaza-tetracyclo[19.3.1.1(2,6). 1(8,12)]heptacosa-1(25),2(26),3,5,8,10,12(27),16,21,23-decaene]
Relation of deaths to pacritinib (phase 2): None of the deaths were considered related to pacritinib
SAEs considered related to pacritinib (phase 2): two
Gastrointestinal toxicities (phase 2, n = 31): reported by all patients
Grade 3/4 AE: anemia (phase 2, n = 31): 5 n
Grade 3/4 AE: bone pain (phase 2, n = 31): 4 n
Grade 3/4 AE: diarrhea (phase 2, n = 31): 5 n
Grade 3/4 AE: fatigue (phase 2, n = 31): 5 n
Grade 3 or 4 thrombocytopenia (phase 2, n = 31): three
Grade 3 treatment-related AEs (phase 2, n = 31): 22.6%
Grade 4 treatment-related AEs (phase 2, n = 31): No grade 4/5 treatment-related AEs were reported
Leukopenia, neutropenia, lymphopenia (phase 2, n = 31): No leukopenia, neutropenia, or lymphopenia was reported
Patients who discontinued pacritinib because of an AE (phase 2, n = 31): 9.7%
Patients with SAEs (phase 2, n = 31): 41.9%
Patients with at least one grade 3/4 AE (phase 2, n = 31): 71.0%
Patients with dose interruptions because of AEs (phase 2, n = 31): Fourteen
Patients with dose reductions because of AEs (phase 2, n = 31): 14 patients
Treatment-related AE: diarrhea (phase 2, n = 31): 90.3%
Treatment-related AE: fatigue (phase 2, n = 31): 12.9%
Treatment-related AE: nausea (phase 2, n = 31): 48.4%
Treatment-related AE: vomiting (phase 2, n = 31): 29.0%
Treatment-emergent AE: Abdominal pain (phase 2, n = 31, Any grade): 9 (29.0) n (%)
Treatment-emergent AE: Anemia (phase 2, n = 31, Any grade): 6 (19.4) n (%)
Treatment-emergent AE: Asthenia (phase 2, n = 31, Any grade): 5 (16.1) n (%)
Treatment-emergent AE: Bone pain (phase 2, n = 31, Any grade): 6 (19.4) n (%)
Treatment-emergent AE: Cardiac murmur (phase 2, n = 31, Any grade): 4 (12.9) n (%)
Treatment-emergent AE: Constipation (phase 2, n = 31, Any grade): 5 (16.1) n (%)
Treatment-emergent AE: Diarrhea (phase 2, n = 31, Any grade): 28 (90.3) n (%)
Treatment-emergent AE: Dyspnea (phase 2, n = 31, Any grade): 5 (16.1) n (%)
Treatment-emergent AE: Edema peripheral (phase 2, n = 31, Any grade): 12 (38.7) n (%)
Treatment-emergent AE: Fatigue (phase 2, n = 31, Any grade): 18 (58.1) n (%)
Treatment-emergent AE: Hyperuricemia (phase 2, n = 31, Any grade): 4 (12.9) n (%)
Treatment-emergent AE: Insomnia (phase 2, n = 31, Any grade): 9 (29.0) n (%)
Treatment-emergent AE: Nausea (phase 2, n = 31, Any grade): 16 (51.6) n (%)
Treatment-emergent AE: Night sweats (phase 2, n = 31, Any grade): 7 (22.6) n (%)
Treatment-emergent AE: Pain in extremity (phase 2, n = 31, Any grade): 8 (25.8) n (%)
Treatment-emergent AE: Pruritus (phase 2, n = 31, Any grade): 9 (29.0) n (%)
Treatment-emergent AE: Pyrexia (phase 2, n = 31, Any grade): 4 (12.9) n (%)
Treatment-emergent AE: Rash (phase 2, n = 31, Any grade): 4 (12.9) n (%)
Treatment-emergent AE: Upper respiratory tract infection (phase 2, n = 31, Any grade): 4 (12.9) n (%)
Treatment-emergent AE: Vomiting (phase 2, n = 31, Any grade): 11 (35.5) n (%)
Treatment-emergent AE: Weight decreased (phase 2, n = 31, Any grade): 4 (12.9) n (%)
Treatment-emergent AE: Abdominal pain (phase 2, n = 31, Grade 1): 3 (9.7) n (%)
Treatment-emergent AE: Anemia (phase 2, n = 31, Grade 1): 0 n (%)
Treatment-emergent AE: Asthenia (phase 2, n = 31, Grade 1): 4 (12.9) n (%)
Treatment-emergent AE: Bone pain (phase 2, n = 31, Grade 1): 1 (3.2) n (%)
Treatment-emergent AE: Cardiac murmur (phase 2, n = 31, Grade 1): 0 n (%)
Treatment-emergent AE: Constipation (phase 2, n = 31, Grade 1): 5 (16.1) n (%)
Treatment-emergent AE: Diarrhea (phase 2, n = 31, Grade 1): 14 (45.2) n (%)
Treatment-emergent AE: Dyspnea (phase 2, n = 31, Grade 1): 4 (12.9) n (%)
Treatment-emergent AE: Edema peripheral (phase 2, n = 31, Grade 1): 6 (19.4) n (%)
Treatment-emergent AE: Fatigue (phase 2, n = 31, Grade 1): 2 (6.5) n (%)
Treatment-emergent AE: Hyperuricemia (phase 2, n = 31, Grade 1): 2 (6.5) n (%)
Treatment-emergent AE: Insomnia (phase 2, n = 31, Grade 1): 7 (22.6) n (%)
Treatment-emergent AE: Nausea (phase 2, n = 31, Grade 1): 9 (29.0) n (%)
Treatment-emergent AE: Night sweats (phase 2, n = 31, Grade 1): 4 (12.9) n (%)
Treatment-emergent AE: Pain in extremity (phase 2, n = 31, Grade 1): 5 (16.1) n (%)
Treatment-emergent AE: Pruritus (phase 2, n = 31, Grade 1): 4 (12.9) n (%)
Treatment-emergent AE: Pyrexia (phase 2, n = 31, Grade 1): 4 (12.9) n (%)
Treatment-emergent AE: Rash (phase 2, n = 31, Grade 1): 2 (6.5) n (%)
Treatment-emergent AE: Upper respiratory tract infection (phase 2, n = 31, Grade 1): 3 (9.7) n (%)
Treatment-emergent AE: Vomiting (phase 2, n = 31, Grade 1): 7 (22.6) n (%)
Treatment-emergent AE: Weight decreased (phase 2, n = 31, Grade 1): 4 (12.9) n (%)
Treatment-emergent AE: Abdominal pain (phase 2, n = 31, Grade 2): 3 (9.7) n (%)
Treatment-emergent AE: Anemia (phase 2, n = 31, Grade 2): 1 (3.2) n (%)
Treatment-emergent AE: Asthenia (phase 2, n = 31, Grade 2): 1 (3.2) n (%)
Treatment-emergent AE: Bone pain (phase 2, n = 31, Grade 2): 1 (3.2) n (%)
Treatment-emergent AE: Cardiac murmur (phase 2, n = 31, Grade 2): 4 (12.9) n (%)
Treatment-emergent AE: Constipation (phase 2, n = 31, Grade 2): 0 n (%)
Treatment-emergent AE: Diarrhea (phase 2, n = 31, Grade 2): 9 (29.0) n (%)
Treatment-emergent AE: Dyspnea (phase 2, n = 31, Grade 2): 0 n (%)
Treatment-emergent AE: Edema peripheral (phase 2, n = 31, Grade 2): 5 (16.1) n (%)
Treatment-emergent AE: Fatigue (phase 2, n = 31, Grade 2): 11 (35.5) n (%)
Treatment-emergent AE: Hyperuricemia (phase 2, n = 31, Grade 2): 0 n (%)
Treatment-emergent AE: Insomnia (phase 2, n = 31, Grade 2): 2 (6.5) n (%)
Treatment-emergent AE: Nausea (phase 2, n = 31, Grade 2): 6 (19.4) n (%)
Treatment-emergent AE: Night sweats (phase 2, n = 31, Grade 2): 3 (9.7) n (%)
Treatment-emergent AE: Pain in extremity (phase 2, n = 31, Grade 2): 2 (6.5) n (%)
Treatment-emergent AE: Pruritus (phase 2, n = 31, Grade 2): 4 (12.9) n (%)
Treatment-emergent AE: Pyrexia (phase 2, n = 31, Grade 2): 0 n (%)
Treatment-emergent AE: Rash (phase 2, n = 31, Grade 2): 1 (3.2) n (%)
Treatment-emergent AE: Upper respiratory tract infection (phase 2, n = 31, Grade 2): 1 (3.2) n (%)
Treatment-emergent AE: Vomiting (phase 2, n = 31, Grade 2): 3 (9.7) n (%)
Treatment-emergent AE: Weight decreased (phase 2, n = 31, Grade 2): 0 n (%)
Treatment-emergent AE: Abdominal pain (phase 2, n = 31, Grade 3): 3 (9.7) n (%)
Treatment-emergent AE: Anemia (phase 2, n = 31, Grade 3): 3 (9.7) n (%)
Treatment-emergent AE: Asthenia (phase 2, n = 31, Grade 3): 0 n (%)
Treatment-emergent AE: Bone pain (phase 2, n = 31, Grade 3): 4 (12.9) n (%)
Treatment-emergent AE: Cardiac murmur (phase 2, n = 31, Grade 3): 0 n (%)
Treatment-emergent AE: Constipation (phase 2, n = 31, Grade 3): 0 n (%)
Treatment-emergent AE: Diarrhea (phase 2, n = 31, Grade 3): 5 (16.1) n (%)
Treatment-emergent AE: Dyspnea (phase 2, n = 31, Grade 3): 1 (3.2) n (%)
Treatment-emergent AE: Edema peripheral (phase 2, n = 31, Grade 3): 1 (3.2) n (%)
Treatment-emergent AE: Fatigue (phase 2, n = 31, Grade 3): 4 (12.9) n (%)
Treatment-emergent AE: Hyperuricemia (phase 2, n = 31, Grade 3): 0 n (%)
Treatment-emergent AE: Insomnia (phase 2, n = 31, Grade 3): 0 n (%)
Treatment-emergent AE: Nausea (phase 2, n = 31, Grade 3): 1 (3.2) n (%)
Treatment-emergent AE: Night sweats (phase 2, n = 31, Grade 3): 0 n (%)
Treatment-emergent AE: Pain in extremity (phase 2, n = 31, Grade 3): 0 n (%)
Treatment-emergent AE: Pruritus (phase 2, n = 31, Grade 3): 1 (3.2) n (%)
Treatment-emergent AE: Pyrexia (phase 2, n = 31, Grade 3): 0 n (%)
Treatment-emergent AE: Rash (phase 2, n = 31, Grade 3): 1 (3.2) n (%)
Treatment-emergent AE: Upper respiratory tract infection (phase 2, n = 31, Grade 3): 0 n (%)
Treatment-emergent AE: Vomiting (phase 2, n = 31, Grade 3): 1 (3.2) n (%)
Treatment-emergent AE: Weight decreased (phase 2, n = 31, Grade 3): 0 n (%)
Treatment-emergent AE: Abdominal pain (phase 2, n = 31, Grade 4): 0 n (%)
Treatment-emergent AE: Anemia (phase 2, n = 31, Grade 4): 2 (6.5) n (%)
Treatment-emergent AE: Asthenia (phase 2, n = 31, Grade 4): 0 n (%)
Treatment-emergent AE: Bone pain (phase 2, n = 31, Grade 4): 0 n (%)
Treatment-emergent AE: Cardiac murmur (phase 2, n = 31, Grade 4): 0 n (%)
Treatment-emergent AE: Constipation (phase 2, n = 31, Grade 4): 0 n (%)
Treatment-emergent AE: Diarrhea (phase 2, n = 31, Grade 4): 0 n (%)
Treatment-emergent AE: Dyspnea (phase 2, n = 31, Grade 4): 0 n (%)
Treatment-emergent AE: Edema peripheral (phase 2, n = 31, Grade 4): 0 n (%)
Treatment-emergent AE: Fatigue (phase 2, n = 31, Grade 4): 1 (3.2) n (%)
Treatment-emergent AE: Hyperuricemia (phase 2, n = 31, Grade 4): 2 (6.5) n (%)
Treatment-emergent AE: Insomnia (phase 2, n = 31, Grade 4): 0 n (%)
Treatment-emergent AE: Nausea (phase 2, n = 31, Grade 4): 0 n (%)
Treatment-emergent AE: Night sweats (phase 2, n = 31, Grade 4): 0 n (%)
Treatment-emergent AE: Pain in extremity (phase 2, n = 31, Grade 4): 1 (3.2) n (%)
Treatment-emergent AE: Pruritus (phase 2, n = 31, Grade 4): 0 n (%)
Treatment-emergent AE: Pyrexia (phase 2, n = 31, Grade 4): 0 n (%)
Treatment-emergent AE: Rash (phase 2, n = 31, Grade 4): 0 n (%)
Treatment-emergent AE: Upper respiratory tract infection (phase 2, n = 31, Grade 4): 0 n (%)
Treatment-emergent AE: Vomiting (phase 2, n = 31, Grade 4): 0 n (%)
Treatment-emergent AE: Weight decreased (phase 2, n = 31, Grade 4): 0 n (%)
Patients who died (phase 2, of 33 enrolled): 27.3%
